Experimental data published in US7994209B2, “3-phenoxymethylpyrrolidine compounds” (Theravance, Inc., priority 2009, dated 2011).
Marks after values point to notes of the source that are not given here.

Legend:
[1] = target: hNET (Homo sapiens, UniProt P23975); experiment: fluorescence-based norepinephrine reuptake inhibition assay (Tsuruda et al. 2010; data indicated by an asterisk); format: cell-based; set-up: expressed in transfected cells; host or cells: HEK-293; settings: norepinephrine reuptake inhibition, fluorescence-based assay (values with asterisk); read-out: NET pIC50 (converted)
[2] = target: hSERT (Homo sapiens, UniProt P31645); experiment: fluorescence-based serotonin reuptake inhibition assay (Tsuruda et al. 2010; data indicated by an asterisk); format: cell-based; set-up: expressed in transfected cells; host or cells: HEK-293; settings: fluorescence-based assay (values with asterisk); for IC50: read-out: SERT pIC50 (converted)
hSERT, sequence (P31645 whole entry): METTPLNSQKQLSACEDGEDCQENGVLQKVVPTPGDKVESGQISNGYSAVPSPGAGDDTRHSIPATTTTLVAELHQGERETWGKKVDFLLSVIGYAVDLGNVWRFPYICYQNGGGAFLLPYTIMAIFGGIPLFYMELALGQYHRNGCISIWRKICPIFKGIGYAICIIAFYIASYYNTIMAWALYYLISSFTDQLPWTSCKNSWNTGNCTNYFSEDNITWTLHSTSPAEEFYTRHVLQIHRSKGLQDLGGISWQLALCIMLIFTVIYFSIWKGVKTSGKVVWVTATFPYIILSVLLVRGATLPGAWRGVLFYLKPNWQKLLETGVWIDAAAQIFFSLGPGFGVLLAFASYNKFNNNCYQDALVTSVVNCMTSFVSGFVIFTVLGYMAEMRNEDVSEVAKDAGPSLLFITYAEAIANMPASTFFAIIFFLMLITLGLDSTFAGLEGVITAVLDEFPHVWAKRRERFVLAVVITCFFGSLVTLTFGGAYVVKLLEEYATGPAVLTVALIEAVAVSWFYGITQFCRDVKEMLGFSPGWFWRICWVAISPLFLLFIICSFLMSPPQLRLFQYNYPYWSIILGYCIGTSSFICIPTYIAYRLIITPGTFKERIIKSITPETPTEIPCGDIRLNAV

hNET, sequence (P23975 whole entry): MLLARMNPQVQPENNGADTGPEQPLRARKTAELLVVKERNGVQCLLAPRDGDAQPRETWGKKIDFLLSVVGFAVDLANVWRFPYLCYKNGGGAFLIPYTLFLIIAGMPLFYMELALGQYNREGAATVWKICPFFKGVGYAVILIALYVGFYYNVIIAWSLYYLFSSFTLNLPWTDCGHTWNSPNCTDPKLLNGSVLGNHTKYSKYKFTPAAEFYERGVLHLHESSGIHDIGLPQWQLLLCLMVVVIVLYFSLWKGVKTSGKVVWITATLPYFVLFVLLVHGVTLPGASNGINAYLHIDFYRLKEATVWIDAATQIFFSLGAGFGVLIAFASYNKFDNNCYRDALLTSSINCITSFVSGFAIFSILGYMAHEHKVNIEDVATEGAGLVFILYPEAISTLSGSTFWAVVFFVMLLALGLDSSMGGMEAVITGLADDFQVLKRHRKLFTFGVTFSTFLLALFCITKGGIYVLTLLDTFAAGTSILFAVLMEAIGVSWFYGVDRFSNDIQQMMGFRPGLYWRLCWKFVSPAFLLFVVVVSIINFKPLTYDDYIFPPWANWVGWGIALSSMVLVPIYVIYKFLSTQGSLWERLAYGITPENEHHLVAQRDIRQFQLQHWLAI

Compound	IC50 [1] [µM]	IC50 [2] [µM]	SERT pIC50 [2]
Cc1cc(Cl)ccc1O[C@H](C(C)C)[C@@H]1CCNC1 [Example 6-46, (R)-3-[(R)-1-(4-Chloro-2-methylphenoxy)-2-methylpropyl]pyrrolidine]	≤ 0.1	≤ 0.1	
COc1cc(Cl)ccc1O[C@H](C(C)C)[C@@H]1CCNC1 [Example 6-48, (R)-3-[(R)-1-(4-Chloro-2-methoxyphenoxy)-2-methylpropyl]pyrrolidine]	≤ 0.1	≤ 0.01	
CC(C)[C@@H](Oc1ccc(Cl)c(F)c1)[C@H]1CCNC1 [Example 6-57, (S)-3-[(R)-1-(4-Chloro-3-fluorophenoxy)-2-methylpropyl]pyrrolidine]	≤ 0.1	≤ 0.01	
CC(C)[C@@H](Oc1ccc(Cl)c(F)c1)[C@@H]1CCNC1 [Example 6-58, (R)-3-[(R)-1-(4-Chloro-3-fluorophenoxy)-2-methylpropyl]pyrrolidine]	≤ 0.1	≤ 0.01	
CC(C)[C@H](Oc1cc(F)cc(Cl)c1)[C@H]1CCNC1 [Example 6-59, (S)-3-[(S)-1-(3-Chloro-5-fluorophenoxy)-2-methylpropyl]pyrrolidine]	≤ 0.01	≤ 0.1	
CC(C)[C@@H](Oc1cc(F)cc(Cl)c1)[C@H]1CCNC1 [Example 6-60, (S)-3-[(R)-1-(3-Chloro-5-fluorophenoxy)-2-methylpropyl]pyrrolidine]	≤ 0.01	≤ 0.01	
CC(C)[C@@H](Oc1cc(F)cc(Cl)c1)[C@@H]1CCNC1 [Example 6-61, (R)-3-[(R)-1-(3-Chloro-5-fluorophenoxy)-2-methylpropyl]pyrrolidine]	≤ 0.1	≤ 0.1	
CC(C)[C@@H](Oc1ccc(Cl)c(Cl)c1)[C@H]1CCNC1 [Example 6-63, (S)-3-[(R)-1-(3,4-Dichlorophenoxy)-2-methylpropyl]pyrrolidine]	≤ 0.1	≤ 0.01	
CC(C)[C@@H](Oc1ccc(Cl)c(Cl)c1)[C@@H]1CCNC1 [Example 6-64, (R)-3-[(R)-1-(3,4-Dichlorophenoxy)-2-methylpropyl]pyrrolidine]	≤ 0.1	≤ 0.01	
CC(C)[C@H](Oc1ccc(Cl)c(Cl)c1)[C@@H]1CCNC1 [Example 6-65, (R)-3-[(S)-1-(3,4-Dichlorophenoxy)-2-methylpropyl]pyrrolidine]	≤ 0.1	≤ 0.01	
CC(C)[C@H](Oc1cc(Cl)cc(Cl)c1)[C@@H]1CCNC1 [Example 6-69, (R)-3-[(S)-1-(3,5-Dichlorophenoxy)-2-methylpropyl]pyrrolidine]	≤ 0.1	≤ 0.1	
Cc1cc(O[C@H](C(C)C)[C@H]2CCNC2)ccc1Cl [Example 6-71, (S)-3-[(R)-1-(4-Chloro-3-methylphenoxy)-2-methylpropyl]pyrrolidine]	≤ 0.1	≤ 0.01	
CC(C)C[C@H](Oc1cccc(C(F)(F)F)c1F)[C@H]1CCNC1 [Example 10-21, (S)-3-[(S)-1-(2-Fluoro-3-trifluoromethylphenoxy)-3-methylbutyl]pyrrolidine]	≤ 0.01	≤ 0.01	
CC(C)C[C@@H](Oc1cccc(Cl)c1C(F)(F)F)[C@H]1CCNC1 [Example 10-34, (S)-3-[(R)-1-(3-Chloro-2-trifluoromethylphenoxy)-3-methylbutyl]pyrrolidine]	≤ 0.1	≤ 0.01	
CC(C)C[C@@H](Oc1ccc(Cl)cc1F)[C@H]1CCNC1 [Example 10-40, (S)-3-[(R)-1-(4-Chloro-2-fluorophenoxy)-3-methylbutyl]pyrrolidine]	≤ 0.01	≤ 0.1	
CC(C)C[C@H](Oc1cc(Cl)ccc1Cl)[C@H]1CCNC1 [Example 10-51, (S)-3-[(S)-1-(2,5-Dichlorophenoxy)-3-methylbutyl]pyrrolidine]	≤ 0.01	≤ 0.01	
CC(C)C[C@H](Oc1c(F)ccc(Cl)c1F)[C@H]1CCNC1 [Example 10-60, (S)-3-[(S)-1-(3-Chloro-2,6-difluorophenoxy)-3-methylbutyl]pyrrolidine]	≤ 0.01	≤ 0.01	
CC(C)C[C@H](Oc1c(F)ccc(F)c1Cl)[C@H]1CCNC1 [Example 10-63, (S)-3-[(S)-1-(2-Chloro-3,6-difluorophenoxy)-3-methylbutyl]pyrrolidine]	≤ 0.01	≤ 0.01	
CC(C)C[C@H](Oc1c(F)ccc(Cl)c1Cl)[C@H]1CCNC1 [Example 10-65, (S)-3-[(S)-1-(2,3-Dichloro-6-fluorophenoxy)-3-methylbutyl]pyrrolidine]	≤ 0.01	≤ 0.01	
CC(C)C[C@H](Oc1c(F)cc(Cl)cc1F)[C@H]1CCNC1 [Example 10-67, (S)-3-[(S)-1-(4-Chloro-2,6-difluorophenoxy)-3-methylbutyl]pyrrolidine]	≤ 0.01	≤ 0.01	
CC(C)C[C@@H](Oc1ccc(Cl)c(F)c1)[C@H]1CCNC1 [Example 10-71, (S)-3-[(R)-1-(4-Chloro-3-fluorophenoxy)-3-methylbutyl]pyrrolidine]	≤ 0.01	≤ 0.01	

Compound	IC50 [1] [µM]	IC50 [2] [µM]	SERT pIC50 [2]
CC(C)C[C@H](Oc1ccc(Cl)c(F)c1)[C@H]1CCNC1 [Example 10-72, (S)-3-[(S)-1-(4-Chloro-3-fluorophenoxy)-3-methylbutyl]pyrrolidine]	≤ 0.01	≤ 0.01	
CC(C)C[C@H](Oc1ccc(Cl)c(Cl)c1)[C@H]1CCNC1 [Example 10-74, (S)-3-[(S)-1-(3,4-Dichlorophenoxy)-3-methylbutyl]pyrrolidine]	≤ 0.01	≤ 0.01	
Cc1cc(O[C@@H](CC(C)C)[C@H]2CCNC2)ccc1Cl [Example 10-75, (S)-3-[(S)-1-(4-Chloro-3-methylphenoxy)-3-methylbutyl]pyrrolidine]	≤ 0.01	≤ 0.01	
Cc1cc(O[C@H](CC(C)C)[C@H]2CCNC2)ccc1Cl [Example 10-76, (S)-3-[(R)-1-(4-Chloro-3-methylphenoxy)-3-methylbutyl]pyrrolidine]	≤ 0.1	≤ 0.01	
CC(C)C[C@@H](Oc1cc(F)cc(Cl)c1)[C@H]1CCNC1 [Example 10-83, (S)-3-[(R)-1-(3-Chloro-5-fluorophenoxy)-3-methylbutyl]pyrrolidine]	≤ 0.01	≤ 0.1	
CC(C)C[C@H](Oc1c(Cl)c(F)cc(F)c1Cl)[C@H]1CCNC1 [Example 10-85, (S)-3-[(S)-1-(2,6-Dichloro-3,5-difluorophenoxy)-3-methylbutyl]pyrrolidine]	≤ 0.01	≤ 0.01	
CCC(CC)[C@@H](Oc1cccc(Cl)c1Cl)[C@H]1CCNC1 [Example 11, (S)-3-[(R)-1-(2,3-Dichlorophenoxy)-2-ethylbutyl]pyrrolidine]	≤ 0.01	≤ 0.01	
CCC(CC)[C@H](Oc1cccc(Cl)c1Cl)[C@H]1CCNC1 [Example 12-1, (S)-3-[(S)-1-(2,3-Dichlorophenoxy)-2-ethylbutyl]pyrrolidine]	≤ 0.01	≤ 0.01	
CC(C)[C@H](Oc1cccc2ccccc12)[C@@H]1CCNC1 [Example 14-4, (R)-3-[(S)-2-Methyl-1-(naphthalen-1-yloxy)propyl]pyrrolidine]	≤ 0.1	≤ 0.01	
CC(C)[C@@H](Oc1cccc2ccccc12)[C@H]1CCNC1 [Example 14-6, (S)-3-[(R)-2-Methyl-1-(naphthalen-1-yloxy)propyl]pyrrolidine]	≤ 0.01	≤ 0.01	
CC(C)[C@@H](Oc1cccc2ccccc12)[C@@H]1CCNC1 [Example 14-7, (R)-3-[(R)-2-Methyl-1-(naphthalen-1-yloxy)propyl]pyrrolidine]	≤ 0.1	≤ 0.01	
CC(C)C[C@H](Oc1cccc2ccccc12)[C@H]1CCNC1 [Example 14-8, (S)-3-[(S)-3-Methyl-1-(naphthalen-1-yloxy)butyl]pyrrolidine]	≤ 0.01	≤ 0.01	
CC(C)C[C@@H](Oc1cccc2ccccc12)[C@H]1CCNC1 [Example 14-9, (S)-3-[(R)-3-Methyl-1-(naphthalen-1-yloxy)butyl]pyrrolidine]	≤ 0.01	≤ 0.01	
Fc1c(Cl)ccc(O[C@@H](C2CC2)[C@H]2CCNC2)c1F [Example 16-48, (S)-3-[(S)-(4-Chloro-2,3-difluorophenoxy)cyclopropylmethyl]pyrrolidine]	≤ 0.01	≤ 0.01	
Fc1c(Cl)ccc(O[C@H](C2CC2)[C@H]2CCNC2)c1F [Example 16-49, (S)-3-[(R)-(4-Chloro-2,3-difluorophenoxy)cyclopropylmethyl]pyrrolidine]	≤ 0.01	≤ 0.01	
Fc1cc(Cl)cc(O[C@@H](C2CC2)[C@H]2CCNC2)c1Cl [Example 16-57, (S)-3-[(S)cyclopropyl-(2,5-dichloro-3-fluorophenoxy)methyl]pyrrolidine]	≤ 0.1	≤ 0.1	
Cc1cc(Cl)cc(Cl)c1O[C@H](C1CC1)[C@H]1CCNC1 [Example 16-78, (S)-3-[(R)cyclopropyl-(2,4-dichloro-6-methylphenoxy)methyl]pyrrolidine]	≤ 0.1	≤ 0.1	
COc1cc(Cl)cc(O[C@@H](C2CC2)[C@H]2CCNC2)c1 [Example 16-100, (S)-3-[(S)-(3-Chloro-5-methoxyphenoxy)cyclopropylmethyl]pyrrolidine]	≤ 0.01	≤ 0.1	
Cc1cc(O[C@@H](C2CC2)[C@H]2CCNC2)cc(C)c1Cl [Example 16-101, (S)-3-[(S)-(4-Chloro-3,5-dimethylphenoxy)cyclopropylmethyl]pyrrolidine]	≤ 0.1	≤ 0.01	
Clc1cccc(OC(C2CCCC2)C2CCNC2)c1Cl (stereo not drawn) [Example 18-1, 3-[Cyclopentyl-(2,3-dichlorophenoxy)methyl]pyrrolidine]	≤ 0.01	≤ 0.01	
Cc1ccc(OC(C2CCCC2)C2CCNC2)c(Cl)c1 (stereo not drawn) [Example 18-6, 3-[(2-Chloro-4-methylphenoxy)cyclopentylmethyl]pyrrolidine]	≤ 0.1		≧8.0*
